# Source: paper PMC10250256, “A radiohybrid theranostics ligand labeled with fluorine-18 and lutetium-177 for fibroblast activation protein-targeted imaging and radionuclide therapy” (European Journal of Nuclear Medicine and Molecular Imaging, 2023)
# Experiments:
# [1] = test system: HT-1080-FAP xenografts; assay: radionuclide treatment of HT-1080-FAP xenografts; format: in vivo, BALB/C-nu/nu mice
# Description: (§1) All animal experiments were conducted in compliance with a protocol approved by the First Affiliated Hospital of Sun Yat-sen University Institutional Animal Care and Use Committee. BALB/C-nu/nu mice (4–5-week old with body weight of 16–22 g) were purchased from GemPharmatech Co., Ltd. Mice were housed under standard conditions with temperature and light control (12-h-light/12-h-dark cycle) and had free access to water and food. For the tumor model, HT-1080-FAP or HT-1080 cells (5 × 10^6) were subcutaneously injected into the right or left flank of nude mice, respectively. As the tumor diameter reached 3–4 mm, mice were treated with radioligands. Micro-PET and SPECT imaging studies, as well as biodistribution, were conducted when the tumor diameter reached 5–10 mm.
# Radionuclide therapy was performed when the diameter of HT-1080-FAP xenografts reached 3–4 mm. The mice were randomly divided into 4 groups (n = 4) and intravenously injected with [^177Lu]21 (24.05 MBq), [^177Lu]21 (9.25 MBq), [^177Lu]Lu-FAPI-04 (24.05 MBq) and saline, respectively. Tumor volume (volume = length × width^2/2) and mouse weight were measured every 2–3 d. Endpoint criteria were defined as weight loss of more than 15%, tumor volume greater than 1500 mm^3, or active ulcerations of the tumor. […]
# [2] = in vivo stability in ICR mice, blood samples (radio-HPLC)
# Description: [^18F]21 or [^177Lu]21 (50 μCi, 10 μL) was added to PBS (90 μL) or murine serum (90 μL) and the mixture was incubated at 37 °C for a certain time ([^18F]21: 2 h, [^177Lu]21: 8 d). The PBS mixture was injected directly into the radio-HPLC for analysis. The murine serum was precipitated with 0.1 mL of acetonitrile and centrifuged (10,000 rpm, 5 min). The supernatant was measured and analyzed by the radio-HPLC to determine the stability. For in vivo stability study, the radio tracers were injected into the tail vein of ICR mice and samples of blood were collected after a certain time post injection (pi) ([^18F]21: 4 h, [^177Lu]21: 9 h). The plasma proteins were precipitated using an equal volume of acetonitrile and centrifuged (10,000 rpm, 5 min). The RCP of radio tracer in supernatants were analyzed and quantified by radio-HPLC. The radio-HPLC method was as follows: A: 0.1% TFA in H2O, B: ACN, 0–10 min, 0–100% B. The flow rate was 1 mL/min, and the C18 column (4.6 × 150 mm, 5 μm, ZORBAX, Agilent) was used. When using HPLC to assess the stability of [^177Lu]21, the effluent was collected every 30 s due to its less radioactivity, and samples were measured by an automatic γ-counter (2480 Wizard2, Perkin Elmer). The counted samples were plotted as intensity (cpm) against fraction.
# [3] = test system: HT-1080-FAP tumor-bearing mice; assay: biodistribution in HT-1080-FAP tumor-bearing mice; format: in vivo, BALB/C-nu/nu mice; conditions: i.v.
# Description: as §1
# [^177Lu]21 (~ 0.925 MBq) was injected via the tail vein of HT-1080-FAP tumor-bearing mice. The animals were sacrificed at 4, 24, 48 and 96 h pi. Organs of interest were dissected, weighed and counted with a γ-counter. The data were normalized to percentage injected dose (%ID/g) with standard dilution of the initial dose. The biodistribution of [^177Lu]Lu-FAPI-04 was conducted at 24 h pi for comparison.
smiles,measurement,setting,value
CC(C)(C)[Si](F)(c1ccc(C(=O)NCC(NC(=O)CCC(C(=O)O)N2CCN(CC(=O)[O-])CCN(CC(=O)[O-])CCN(CC(=O)[O-])CC2)C(=O)NCC2CCC(C(=O)NCCCOc3ccc4nccc(C(=O)NCC(=O)N5CC(F)(F)CC5C#N)c4c3)CC2)cc1)C(C)(C)C.[177Lu+3] (stereo not drawn) [[^177Lu]21],suppression of tumor growth versus control,[1]; 9.25 MBq i.v.,no statistically significant difference in comparison to control
same,average relative tumor volume,"[1]; 24.05 MBq i.v., end of study",4.55
same,metabolization in blood samples (radio-HPLC),"[2]; ICR mice, within 9 h pi",little evidence of any metabolization
same,in vivo stability,[2]; as summarised in discussion,> 90%
same,Tumor/ Kidney ratio,[3]; 4 h pi,2.15 ± 0.55
same,Tumor/Blood ratio,[3]; 4 h pi,2.63 ± 0.23
same,Tumor/Liver ratio,[3]; 4 h pi,3.98 ± 1.00
same,Tumor/Muscle ratio,[3]; 4 h pi,6.36 ± 0.27
same,uptake in HT-1080-FAP tumor,[3]; 4 h pi,9.82 ± 1.35 %ID/g
same,uptake in blood,[3]; 4 h pi,3.73 ± 0.36 %ID/g
same,uptake in bone,[3]; 4 h pi,6.76 ± 0.51 %ID/g
same,uptake in brain,[3]; 4 h pi,0.14 ± 0.01 %ID/g
same,uptake in heart,[3]; 4 h pi,1.97 ± 0.09 %ID/g
same,uptake in intestine,[3]; 4 h pi,2.12 ± 0.5 %ID/g
same,uptake in kidney,[3]; 4 h pi,4.70 ± 0.89 %ID/g
same,uptake in liver,[3]; 4 h pi,2.56 ± 0.57 %ID/g
same,uptake in lung,[3]; 4 h pi,3.33 ± 0.97 %ID/g
same,uptake in muscle,[3]; 4 h pi,1.54 ± 0.14 %ID/g
same,uptake in pancreas,[3]; 4 h pi,4.03 ± 0.93 %ID/g
same,uptake in skin,[3]; 4 h pi,3.60 ± 0.56 %ID/g
same,uptake in spleen,[3]; 4 h pi,1.53 ± 0.25 %ID/g
same,uptake in stomach,[3]; 4 h pi,1.80 ± 0.52 %ID/g
same,Tumor/ Kidney ratio,[3]; 24 h pi,1.73 ± 0.32
same,Tumor/Blood ratio,[3]; 24 h pi,13.77 ± 4.99
same,Tumor/Liver ratio,[3]; 24 h pi,1.84 ± 0.41
same,Tumor/Muscle ratio,[3]; 24 h pi,7.03 ± 1.39
same,uptake in HT-1080-FAP tumor,[3]; 24 h pi,2.98 ± 0.98 %ID/g
same,uptake in blood,[3]; 24 h pi,0.22 ± 0.03 %ID/g
same,uptake in bone,[3]; 24 h pi,2.46 ± 0.74 %ID/g
same,uptake in brain,[3]; 24 h pi,0.02 ± 0.00 %ID/g
same,uptake in heart,[3]; 24 h pi,0.61 ±0.43 %ID/g
same,uptake in intestine,[3]; 24 h pi,0.37 ± 0.03 %ID/g
same,uptake in kidney,[3]; 24 h pi,1.72 ± 0.45 %ID/g
same,uptake in liver,[3]; 24 h pi,1.63 ± 0.44 %ID/g
same,uptake in lung,[3]; 24 h pi,0.46 ± 0.11 %ID/g
same,uptake in muscle,[3]; 24 h pi,0.42 ± 0.09 %ID/g
same,uptake in pancreas,[3]; 24 h pi,0.69 ± 0.14 %ID/g
same,uptake in skin,[3]; 24 h pi,1.07 ± 0.32 %ID/g
same,uptake in spleen,[3]; 24 h pi,0.69 ± 0.13 %ID/g
same,uptake in stomach,[3]; 24 h pi,0.39 ± 0.11 %ID/g
same,Tumor/ Kidney ratio,[3]; 48 h pi,1.60 ± 0.19
same,Tumor/Blood ratio,[3]; 48 h pi,56.58 ± 6.63
same,Tumor/Liver ratio,[3]; 48 h pi,3.66 ± 0.52
same,Tumor/Muscle ratio,[3]; 48 h pi,11.31 ± 1.41
same,uptake in HT-1080-FAP tumor,[3]; 48 h pi,2.43 ± 0.04 %ID/g
same,uptake in blood,[3]; 48 h pi,0.04 ± 0.01 %ID/g
same,uptake in bone,[3]; 48 h pi,3.09 ± 0.86 %ID/g
same,uptake in heart,[3]; 48 h pi,0.27 ± 0.05 %ID/g
same,uptake in intestine,[3]; 48 h pi,0.12 ± 0.02 %ID/g
same,uptake in kidney,[3]; 48 h pi,1.53 ± 0.21 %ID/g
same,uptake in liver,[3]; 48 h pi,0.67 ± 0.11 %ID/g
same,uptake in lung,[3]; 48 h pi,0.53 ± 0.4 %ID/g
same,uptake in muscle,[3]; 48 h pi,0.22 ± 0.03 %ID/g
same,uptake in pancreas,[3]; 48 h pi,0.35 ± 0.04 %ID/g
same,uptake in skin,[3]; 48 h pi,0.58 ± 0.09 %ID/g
same,uptake in spleen,[3]; 48 h pi,0.81 ± 0.18 %ID/g
same,uptake in stomach,[3]; 48 h pi,0.32 ± 0.04 %ID/g
same,Tumor/ Kidney ratio,[3]; 96 h pi,1.11 ± 0.04
same,Tumor/Blood ratio,[3]; 96 h pi,102.33 ± 11.24
same,Tumor/Liver ratio,[3]; 96 h pi,0.93 ± 0.01
same,Tumor/Muscle ratio,[3]; 96 h pi,9.0 ± 1.35
same,uptake in HT-1080-FAP tumor,[3]; 96 h pi,1.02 ± 0.11 %ID/g
same,uptake in blood,[3]; 96 h pi,0.01 ± 0.00 %ID/g
same,uptake in bone,[3]; 96 h pi,3.02 ± 0.69 %ID/g
same,uptake in brain,[3]; 96 h pi,0.01 ± 0.00 %ID/g
same,uptake in heart,[3]; 96 h pi,0.16 ± 0.03 %ID/g
same,uptake in intestine,[3]; 96 h pi,0.11 ± 0.01 %ID/g
same,uptake in kidney,[3]; 96 h pi,0.92 ± 0.13 %ID/g
same,uptake in liver,[3]; 96 h pi,1.10 ± 0.12 %ID/g
same,uptake in lung,[3]; 96 h pi,0.57 ± 0.34 %ID/g
same,uptake in muscle,[3]; 96 h pi,0.12 ± 0.03 %ID/g
same,uptake in pancreas,[3]; 96 h pi,0.15 ± 0.03 %ID/g
same,uptake in skin,[3]; 96 h pi,0.35 ± 0.05 %ID/g
same,uptake in spleen,[3]; 96 h pi,0.43 ± 0.07 %ID/g
same,uptake in stomach,[3]; 96 h pi,0.20 ± 0.01 %ID/g
